{"source": "patent US6737383B1", "about": "“Herbicidal oxadiazolidines” (priority 1999, dated 2004)", "key": {"blackgrass": {"system": "blackgrass", "assay": "Test B pre/postemergence blackgrass", "assay_type": "in vivo, Alopecurus myosuroides", "procedure,_shortened": "(§1)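 Herbicidal effect was estimated by eye on a ten-point control scale after plants spent twelve to sixteen days in a greenhouse following soil or foliar treatment. Foliar sprays targeted plants at one to four leaves; all doses were formulated in a non-phytotoxic solvent with surfactant.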"}, "surinam grass": {"system": "surinam grass", "assay": "Test B pre/postemergence surinam grass", "assay_type": "in vivo, Brachiaria decumbens", "procedure,_shortened": "as §1"}, "corn": {"system": "corn", "assay": "Test B pre/postemergence corn", "assay_type": "in vivo, Zea mays", "procedure,_shortened": "as §1"}, "giant foxtail": {"system": "giant foxtail", "assay": "Test B pre/postemergence giant foxtail", "assay_type": "in vivo, Setaria faberii", "procedure,_shortened": "as §1"}, "morningglory": {"system": "morningglory", "assay": "Test B pre/postemergence morningglory", "assay_type": "in vivo, Ipomoea hederacea", "procedure,_shortened": "as §1"}, "pigweed": {"system": "pigweed", "assay": "Test B pre/postemergence pigweed", "assay_type": "in vivo, Amaranthus retroflexus", "procedure,_shortened": "as §1"}, "rape": {"system": "rape", "assay": "Test B pre/postemergence rape", "assay_type": "in vivo, Brassica napus", "procedure,_shortened": "as §1"}, "soybean": {"system": "soybean", "assay": "Test B pre/postemergence soybean", "assay_type": "in vivo, Glycine max", "procedure,_shortened": "as §1"}, "sugar beet": {"system": "sugar beet", "assay": "Test B pre/postemergence sugar beet", "assay_type": "in vivo, Beta vulgaris", "procedure,_shortened": "as §1"}, "velvetleaf": {"system": "velvetleaf", "assay": "Test B pre/postemergence velvetleaf", "assay_type": "in vivo, Abutilon theophrasti", "procedure,_shortened": "as §1"}, "purple nutsedge": {"system": "purple nutsedge", "assay": "Test B pre/postemergence purple nutsedge", "assay_type": "in vivo, Cyperus rotundus", "procedure,_shortened": "as §1"}, "rice": {"system": "rice", "assay": "Test B flood test rice", "assay_type": "in vivo, Oryza sativa", "procedure,_shortened": "(§2)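 Flood test on plants grown to the 2-leaf stage; treated plants kept in greenhouse twelve to sixteen days, then visually rated against controls on a 0 (no effect) to 10 (complete control) scale.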"}, "smallflower flatsedge": {"system": "smallflower flatsedge", "assay": "Test B flood test smallflower flatsedge", "assay_type": "in vivo, Cyperus difformis", "procedure,_shortened": "as §2"}, "duck salad": {"system": "duck salad", "assay": "Test B flood test duck salad", "assay_type": "in vivo, Heteranthera limosa", "procedure,_shortened": "as §2"}, "bamyardgrass": {"system": "bamyardgrass", "assay": "Test B flood test barnyardgrass", "assay_type": "in vivo, Echinochloa crus-galli", "procedure,_shortened": "as §2"}, "[1]": {"conditions": "Postemergence, Rate 62 g/ha, scale 0 to 10, 0 is no effect, 10 is complete control"}, "[2]": {"conditions": "Postemergence, Rate 125 g/ha, scale of 0 to 10 where 0 is no effect and 10 is complete control"}, "[3]": {"conditions": "Postemergence, Rate 250 g/ha, scale of 0 to 10, 0 is no effect, 10 is complete control"}, "[4]": {"conditions": "Postemergence, Rate 500 g/ha, scale of 0 to 10 where 0 is no effect and 10 is complete control"}, "[5]": {"conditions": "Preemergence, Rate 62 g/ha, scale of 0 to 10 where 0 is no effect and 10 is complete control"}, "[6]": {"conditions": "Preemergence, Rate 125 g/ha, scale of 0 to 10 where 0 is no effect and 10 is complete control"}, "[7]": {"conditions": "Preemergence, Rate 250 g/ha, scale 0 to 10 (0 no effect, 10 complete control)"}, "[8]": {"conditions": "Preemergence, Rate 500 g/ha, scale of 0 to 10 where 0 is no effect and 10 is complete control"}, "[9]": {"conditions": "Rate 62 g/ha, flood test species, Pre-emergence, visual evaluation after twelve to sixteen days"}, "[10]": {"conditions": "Rate 125 g/ha, under heading Pre-emergence, flood test species, visual evaluation after twelve to sixteen days"}, "[11]": {"conditions": "Rate 250 g/ha, Pre-emergence (flood test species), scale 0 to 10, 0 is no effect, 10 is complete control"}, "[12]": {"conditions": "Rate 500 g/ha, Pre-emergence section of Table B, 0 to 10 scale (0 no effect, 10 complete control)"}}, "data": [{"molecule": "CC(C)N(C(=O)n1oc(=O)n(CC(=O)C2CCC2)c1=O)c1ccc(Cl)cc1", "note": "[Compound 643]", "values": [{"measurement": "Plant response rating, Blackgrass", "setting": "blackgrass; [1]", "value": 0}, {"measurement": "Blackgrass plant response rating", "setting": "blackgrass; [2]", "value": 0}, {"measurement": "Blackgrass plant response rating", "setting": "blackgrass; [3]", "value": 0}, {"measurement": "Plant response rating, Blackgrass", "setting": "blackgrass; [4]", "value": 4}, {"measurement": "Blackgrass plant response rating", "setting": "blackgrass; [5]", "value": 0}, {"measurement": "Blackgrass plant response rating", "setting": "blackgrass; [6]", "value": 0}, {"measurement": "Plant response rating, Blackgrass", "setting": "blackgrass; [7]", "value": 0}, {"measurement": "Plant response rating, Blackgrass", "setting": "blackgrass; [8]", "value": 8}, {"measurement": "Plant response rating, B. signalgrass", "setting": "surinam grass; [1]", "value": 0}, {"measurement": "Plant response rating, B. signalgrass", "setting": "surinam grass; [2]", "value": 0}, {"measurement": "B. signalgrass plant response rating", "setting": "surinam grass; [3]", "value": 0}, {"measurement": "Plant response rating, B. signalgrass", "setting": "surinam grass; [4]", "value": 2}, {"measurement": "B. signalgrass plant response rating", "setting": "surinam grass; [5]", "value": 0}, {"measurement": "B. signalgrass plant response rating", "setting": "surinam grass; [6]", "value": 2}, {"measurement": "Plant response rating, B. signalgrass", "setting": "surinam grass; [7]", "value": 2}, {"measurement": "Plant response rating, B. signalgrass", "setting": "surinam grass; [8]", "value": 6}, {"measurement": "Plant response rating, Corn", "setting": "corn; [1]", "value": 0}, {"measurement": "Corn plant response rating", "setting": "corn; [2]", "value": 0}, {"measurement": "Corn plant response rating", "setting": "corn; [3]", "value": 0}, {"measurement": "Plant response rating, Corn", "setting": "corn; [4]", "value": 0}, {"measurement": "Corn plant response rating", "setting": "corn; [5]", "value": 0}, {"measurement": "Corn plant response rating", "setting": "corn; [6]", "value": 0}, {"measurement": "Plant response rating, Corn", "setting": "corn; [7]", "value": 0}, {"measurement": "Plant response rating, Corn", "setting": "corn; [8]", "value": 0}, {"measurement": "Plant response rating, Giant foxtail", "setting": "giant foxtail; [1]", "value": 0}, {"measurement": "Giant foxtail plant response rating", "setting": "giant foxtail; [2]", "value": 0}, {"measurement": "Giant foxtail plant response rating", "setting": "giant foxtail; [3]", "value": 0}, {"measurement": "Plant response rating, Giant foxtail", "setting": "giant foxtail; [4]", "value": 0}, {"measurement": "Giant foxtail plant response rating", "setting": "giant foxtail; [5]", "value": 6}, {"measurement": "Giant foxtail plant response rating", "setting": "giant foxtail; [6]", "value": 8}, {"measurement": "Plant response rating, Giant foxtail", "setting": "giant foxtail; [7]", "value": 10}, {"measurement": "Plant response rating, Giant foxtail", "setting": "giant foxtail; [8]", "value": 10}, {"measurement": "Plant response rating, Morningglory", "setting": "morningglory; [1]", "value": 0}, {"measurement": "Morningglory plant response rating", "setting": "morningglory; [2]", "value": 4}, {"measurement": "Morningglory plant response rating", "setting": "morningglory; [3]", "value": 4}, {"measurement": "Plant response rating, Morningglory", "setting": "morningglory; [4]", "value": 6}, {"measurement": "Morningglory plant response rating", "setting": "morningglory; [5]", "value": 0}, {"measurement": "Morningglory plant response rating", "setting": "morningglory; [6]", "value": 0}, {"measurement": "Plant response rating, Morningglory", "setting": "morningglory; [7]", "value": 0}, {"measurement": "Plant response rating, Morningglory", "setting": "morningglory; [8]", "value": 0}, {"measurement": "Plant response rating, Redroot pigweed", "setting": "pigweed; [1]", "value": 0}, {"measurement": "Redroot pigweed plant response rating", "setting": "pigweed; [2]", "value": 0}, {"measurement": "Redroot pigweed plant response rating", "setting": "pigweed; [3]", "value": 0}, {"measurement": "Redroot pigweed plant response rating", "setting": "pigweed; [5]", "value": 0}, {"measurement": "Redroot pigweed plant response rating", "setting": "pigweed; [6]", "value": 0}, {"measurement": "Plant response rating, Redroot pigweed", "setting": "pigweed; [7]", "value": 0}, {"measurement": "Plant response rating, Redroot pigweed", "setting": "pigweed; [8]", "value": 5}, {"measurement": "Rape plant response rating", "setting": "rape; [2]", "value": 0}, {"measurement": "Rape plant response rating", "setting": "rape; [3]", "value": 0}, {"measurement": "Plant response rating, Rape", "setting": "rape; [4]", "value": 0}, {"measurement": "Rape plant response rating", "setting": "rape; [5]", "value": 0}, {"measurement": "Rape plant response rating", "setting": "rape; [6]", "value": 0}, {"measurement": "Plant response rating, Rape", "setting": "rape; [7]", "value": 0}, {"measurement": "Plant response rating, Rape", "setting": "rape; [8]", "value": 6}, {"measurement": "Plant response rating, Soybean", "setting": "soybean; [1]", "value": 1}, {"measurement": "Soybean plant response rating", "setting": "soybean; [2]", "value": 1}, {"measurement": "Soybean plant response rating", "setting": "soybean; [3]", "value": 1}, {"measurement": "Soybean plant response rating", "setting": "soybean; [5]", "value": 0}, {"measurement": "Soybean plant response rating", "setting": "soybean; [6]", "value": 0}, {"measurement": "Plant response rating, Soybean", "setting": "soybean; [7]", "value": 0}, {"measurement": "Plant response rating, Soybean", "setting": "soybean; [8]", "value": 0}, {"measurement": "Plant response rating, Sugarbeets", "setting": "sugar beet; [1]", "value": 0}, {"measurement": "Sugarbeets plant response rating", "setting": "sugar beet; [2]", "value": 0}, {"measurement": "Sugarbeets plant response rating", "setting": "sugar beet; [3]", "value": 0}, {"measurement": "Sugarbeets plant response rating", "setting": "sugar beet; [5]", "value": 0}, {"measurement": "Sugarbeets plant response rating", "setting": "sugar beet; [6]", "value": 0}, {"measurement": "Plant response rating, Sugarbeets", "setting": "sugar beet; [7]", "value": 0}, {"measurement": "Plant response rating, Sugarbeets", "setting": "sugar beet; [8]", "value": 0}, {"measurement": "Plant response rating, Velvetleaf", "setting": "velvetleaf; [1]", "value": 0}, {"measurement": "Velvetleaf plant response rating", "setting": "velvetleaf; [2]", "value": 0}, {"measurement": "Velvetleaf plant response rating", "setting": "velvetleaf; [3]", "value": 0}, {"measurement": "Velvetleaf plant response rating", "setting": "velvetleaf; [5]", "value": 0}, {"measurement": "Velvetleaf plant response rating", "setting": "velvetleaf; [6]", "value": 0}, {"measurement": "Plant response rating, Velvetleaf", "setting": "velvetleaf; [7]", "value": 0}, {"measurement": "Plant response rating, Velvetleaf", "setting": "velvetleaf; [8]", "value": 0}, {"measurement": "Plant response rating, Nutsedge", "setting": "purple nutsedge; [1]", "value": 0}, {"measurement": "Nutsedge plant response rating", "setting": "purple nutsedge; [2]", "value": 0}, {"measurement": "Nutsedge plant response rating", "setting": "purple nutsedge; [3]", "value": 0}, {"measurement": "Plant response rating, Nutsedge", "setting": "purple nutsedge; [4]", "value": 0}, {"measurement": "Nutsedge plant response rating", "setting": "purple nutsedge; [5]", "value": 0}, {"measurement": "Nutsedge plant response rating", "setting": "purple nutsedge; [6]", "value": 0}, {"measurement": "Plant response rating, Nutsedge", "setting": "purple nutsedge; [7]", "value": 0}, {"measurement": "Plant response rating, Nutsedge", "setting": "purple nutsedge; [8]", "value": 0}, {"measurement": "Plant response rating, Rice (0 to 10 scale, 0 is no effect, 10 is complete control)", "setting": "rice; [9]", "value": 0}, {"measurement": "Rice plant response rating (0 to 10 scale, 0 is no effect, 10 is complete control)", "setting": "rice; [10]", "value": 0}, {"measurement": "Rice plant response rating", "setting": "rice; [11]", "value": 0}, {"measurement": "Rice plant response rating", "setting": "rice; [12]", "value": 0}, {"measurement": "Plant response rating, S. Flatsedge (0 to 10 scale, 0 is no effect, 10 is complete control)", "setting": "smallflower flatsedge; [9]", "value": 0}, {"measurement": "S. Flatsedge plant response rating (0 to 10 scale, 0 is no effect, 10 is complete control)", "setting": "smallflower flatsedge; [10]", "value": 0}, {"measurement": "S. Flatsedge plant response rating", "setting": "smallflower flatsedge; [11]", "value": 0}, {"measurement": "S. Flatsedge plant response rating", "setting": "smallflower flatsedge; [12]", "value": 0}, {"measurement": "Plant response rating, Ducksalad (0 to 10 scale, 0 is no effect, 10 is complete control)", "setting": "duck salad; [9]", "value": 0}, {"measurement": "Ducksalad plant response rating (0 to 10 scale, 0 is no effect, 10 is complete control)", "setting": "duck salad; [10]", "value": 0}, {"measurement": "Ducksalad plant response rating", "setting": "duck salad; [11]", "value": 0}, {"measurement": "Ducksalad plant response rating", "setting": "duck salad; [12]", "value": 0}, {"measurement": "Plant response rating, Barnyardgrass (0 to 10 scale, 0 is no effect, 10 is complete control)", "setting": "bamyardgrass; [9]", "value": 0}, {"measurement": "Barnyardgrass plant response rating (0 to 10 scale, 0 is no effect, 10 is complete control)", "setting": "bamyardgrass; [10]", "value": 0}, {"measurement": "Barnyardgrass plant response rating", "setting": "bamyardgrass; [11]", "value": 0}, {"measurement": "Barnyardgrass plant response rating", "setting": "bamyardgrass; [12]", "value": 0}]}]}
